From the kinase profiling compilation of Christmann-Franck et al. (2016)

Legend:
Experiment in all cases: KINOMEscan competition binding
Details in all cases: compound 10.0 µM
MAP2K7 (human) = MAP2K7 (human) (UniProt O14733)
AKT3 (human) = AKT3 (human) (UniProt Q9Y243)
DYRK1B (human) = DYRK1B (human) (UniProt Q9Y463)
SRPK3 (human) = SRPK3 (human) (UniProt Q9UPE1)
PRKX (human) = PRKX (human) (UniProt P51817)
SRPK1 (human) = SRPK1 (human) (UniProt Q96SB4)
MST1R (human) = MST1R (human) (UniProt Q04912)
PIK3C2G (human) = PIK3C2G (human) (UniProt O75747)
RPS6KA3 KD1 (human) = RPS6KA3 KD1 (human) (UniProt P51812)
MUSK (human) = MUSK (human) (UniProt O15146)
PDPK1 (human) = PDPK1 (human) (UniProt O15530)
CDK15 (human) = CDK15 (human) (UniProt Q96Q40)
MAP2K6 (human) = MAP2K6 (human) (UniProt P52564)
PKN1 (human) = PKN1 (human) (UniProt Q16512)
CDK11B (human) = CDK11B (human) (UniProt P21127)
ULK3 (human) = ULK3 (human) (UniProt Q6PHR2)
GRK1 (human) = GRK1 (human) (UniProt Q15835)
OXSR1 (human) = OXSR1 (human) (UniProt O95747)
AKT1 (human) = AKT1 (human) (UniProt P31749)
CDK13 (human) = CDK13 (human) (UniProt Q14004)
MAP2K3 (human) = MAP2K3 (human) (UniProt P46734)
SLK (human) = SLK (human) (UniProt Q9H2G2)
MAPK11 (human) = MAPK11 (human) (UniProt Q15759)
WEE2 (human) = WEE2 (human) (UniProt P0C1S8)
EPHA1 (human) = EPHA1 (human) (UniProt P21709)
ACVR1B (human) = ACVR1B (human) (UniProt P36896)
RPS6KA5 KD2 (human) = RPS6KA5 KD2 (human) (UniProt O75582)
MAP3K1 (human) = MAP3K1 (human) (UniProt Q13233)
RIPK2 (human) = RIPK2 (human) (UniProt O43353)
PIK3CA (human) = PIK3CA (human) (UniProt P42336)
EPHB6 (human) = EPHB6 (human) (UniProt O15197)
[1] = system: PIK3CA (human), P42336 [E542K]
MAPK14 (human) = MAPK14 (human) (UniProt Q16539)
PHKG2 (human) = PHKG2 (human) (UniProt P15735)
PRKCQ (human) = PRKCQ (human) (UniProt Q04759)
MAPK8 (human) = MAPK8 (human) (UniProt P45983)
MAPK15 (human) = MAPK15 (human) (UniProt Q8TD08)
CDC42BPB (human) = CDC42BPB (human) (UniProt Q9Y5S2)
STK25 (human) = STK25 (human) (UniProt O00506)
RAF1 (human) = RAF1 (human) (UniProt P04049)

Sequence of PRKX (human) (P51817 whole entry, looked up): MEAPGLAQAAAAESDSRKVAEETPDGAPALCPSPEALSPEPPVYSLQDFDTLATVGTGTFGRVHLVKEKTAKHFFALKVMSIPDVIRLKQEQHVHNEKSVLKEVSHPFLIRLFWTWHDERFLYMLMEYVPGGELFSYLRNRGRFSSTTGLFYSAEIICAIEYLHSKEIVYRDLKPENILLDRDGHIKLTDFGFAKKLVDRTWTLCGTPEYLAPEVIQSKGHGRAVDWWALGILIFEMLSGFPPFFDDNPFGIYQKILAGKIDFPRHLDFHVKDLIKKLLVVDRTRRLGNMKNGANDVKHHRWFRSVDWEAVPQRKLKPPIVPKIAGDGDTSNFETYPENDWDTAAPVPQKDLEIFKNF
Sequence of MAP2K6 (human) (P52564 whole entry, looked up): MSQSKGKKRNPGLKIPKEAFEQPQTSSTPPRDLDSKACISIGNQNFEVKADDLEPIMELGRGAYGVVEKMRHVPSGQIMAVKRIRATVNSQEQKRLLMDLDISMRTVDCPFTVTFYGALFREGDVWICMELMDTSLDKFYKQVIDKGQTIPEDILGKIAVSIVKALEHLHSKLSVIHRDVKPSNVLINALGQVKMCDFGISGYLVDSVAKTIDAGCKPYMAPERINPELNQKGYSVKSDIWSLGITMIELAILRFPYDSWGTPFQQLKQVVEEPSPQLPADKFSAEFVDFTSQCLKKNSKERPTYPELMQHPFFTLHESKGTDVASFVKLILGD
Sequence of RIPK2 (human) (O43353 whole entry, looked up): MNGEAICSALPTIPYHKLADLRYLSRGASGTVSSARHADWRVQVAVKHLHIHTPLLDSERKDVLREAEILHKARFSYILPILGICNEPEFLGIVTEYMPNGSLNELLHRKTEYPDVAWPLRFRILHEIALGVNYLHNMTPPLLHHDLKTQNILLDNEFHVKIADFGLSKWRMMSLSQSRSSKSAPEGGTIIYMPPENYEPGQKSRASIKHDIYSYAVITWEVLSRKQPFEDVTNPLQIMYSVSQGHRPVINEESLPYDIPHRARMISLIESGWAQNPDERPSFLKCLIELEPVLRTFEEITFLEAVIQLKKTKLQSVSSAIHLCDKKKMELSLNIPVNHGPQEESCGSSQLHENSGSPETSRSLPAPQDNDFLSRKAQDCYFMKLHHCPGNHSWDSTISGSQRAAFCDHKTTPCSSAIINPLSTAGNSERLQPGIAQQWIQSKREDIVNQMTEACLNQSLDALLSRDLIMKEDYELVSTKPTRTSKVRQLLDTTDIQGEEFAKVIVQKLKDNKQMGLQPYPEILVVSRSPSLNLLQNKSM
Sequence of CDK11B (human) (P21127 whole entry, looked up): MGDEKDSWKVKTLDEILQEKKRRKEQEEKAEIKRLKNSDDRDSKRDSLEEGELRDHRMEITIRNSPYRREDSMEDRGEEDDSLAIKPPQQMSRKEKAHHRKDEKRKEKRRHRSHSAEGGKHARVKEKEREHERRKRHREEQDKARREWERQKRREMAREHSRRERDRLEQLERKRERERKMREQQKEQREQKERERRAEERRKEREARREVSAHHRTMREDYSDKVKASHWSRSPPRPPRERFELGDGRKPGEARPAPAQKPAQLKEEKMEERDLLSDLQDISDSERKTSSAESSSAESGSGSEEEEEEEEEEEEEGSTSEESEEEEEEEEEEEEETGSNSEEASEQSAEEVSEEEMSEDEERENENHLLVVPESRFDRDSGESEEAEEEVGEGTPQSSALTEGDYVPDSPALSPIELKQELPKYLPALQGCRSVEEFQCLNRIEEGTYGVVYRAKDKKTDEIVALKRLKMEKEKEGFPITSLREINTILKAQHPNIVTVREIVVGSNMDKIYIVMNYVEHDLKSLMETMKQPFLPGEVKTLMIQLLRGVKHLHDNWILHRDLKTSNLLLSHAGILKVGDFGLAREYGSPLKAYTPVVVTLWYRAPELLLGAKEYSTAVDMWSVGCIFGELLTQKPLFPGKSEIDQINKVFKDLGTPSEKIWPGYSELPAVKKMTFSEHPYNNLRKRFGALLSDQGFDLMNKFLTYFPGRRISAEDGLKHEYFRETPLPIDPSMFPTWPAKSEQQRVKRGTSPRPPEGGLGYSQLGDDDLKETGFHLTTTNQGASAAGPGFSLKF
Sequence of PIK3CA (human) (P42336 whole entry, looked up): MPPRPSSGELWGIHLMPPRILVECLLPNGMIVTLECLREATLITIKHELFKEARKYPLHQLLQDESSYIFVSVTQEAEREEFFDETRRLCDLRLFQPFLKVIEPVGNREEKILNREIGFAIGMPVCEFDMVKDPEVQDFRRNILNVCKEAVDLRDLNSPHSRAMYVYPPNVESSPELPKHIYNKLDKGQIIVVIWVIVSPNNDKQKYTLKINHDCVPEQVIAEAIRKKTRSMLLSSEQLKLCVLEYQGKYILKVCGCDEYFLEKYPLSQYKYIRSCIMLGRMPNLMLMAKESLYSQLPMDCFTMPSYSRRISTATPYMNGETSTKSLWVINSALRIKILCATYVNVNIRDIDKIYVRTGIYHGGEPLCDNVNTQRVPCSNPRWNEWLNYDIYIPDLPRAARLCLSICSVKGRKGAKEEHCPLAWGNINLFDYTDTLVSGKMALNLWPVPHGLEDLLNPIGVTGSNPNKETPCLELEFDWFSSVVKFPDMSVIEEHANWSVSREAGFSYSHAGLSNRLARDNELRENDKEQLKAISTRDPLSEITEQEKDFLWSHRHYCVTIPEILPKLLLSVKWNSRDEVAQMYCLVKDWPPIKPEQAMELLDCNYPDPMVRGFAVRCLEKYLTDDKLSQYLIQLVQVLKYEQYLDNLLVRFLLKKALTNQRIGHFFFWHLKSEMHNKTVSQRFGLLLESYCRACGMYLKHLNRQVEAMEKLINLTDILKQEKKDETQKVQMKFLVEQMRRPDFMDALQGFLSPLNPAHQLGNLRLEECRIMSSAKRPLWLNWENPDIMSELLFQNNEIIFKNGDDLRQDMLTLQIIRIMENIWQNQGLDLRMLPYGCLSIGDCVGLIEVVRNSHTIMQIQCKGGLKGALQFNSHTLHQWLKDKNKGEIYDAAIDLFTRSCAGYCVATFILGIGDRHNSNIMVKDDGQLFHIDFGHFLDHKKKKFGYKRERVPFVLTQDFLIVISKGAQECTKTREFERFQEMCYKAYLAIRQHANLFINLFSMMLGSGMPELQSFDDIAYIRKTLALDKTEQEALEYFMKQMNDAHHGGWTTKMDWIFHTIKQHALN
Sequence of GRK1 (human) (Q15835 whole entry, looked up): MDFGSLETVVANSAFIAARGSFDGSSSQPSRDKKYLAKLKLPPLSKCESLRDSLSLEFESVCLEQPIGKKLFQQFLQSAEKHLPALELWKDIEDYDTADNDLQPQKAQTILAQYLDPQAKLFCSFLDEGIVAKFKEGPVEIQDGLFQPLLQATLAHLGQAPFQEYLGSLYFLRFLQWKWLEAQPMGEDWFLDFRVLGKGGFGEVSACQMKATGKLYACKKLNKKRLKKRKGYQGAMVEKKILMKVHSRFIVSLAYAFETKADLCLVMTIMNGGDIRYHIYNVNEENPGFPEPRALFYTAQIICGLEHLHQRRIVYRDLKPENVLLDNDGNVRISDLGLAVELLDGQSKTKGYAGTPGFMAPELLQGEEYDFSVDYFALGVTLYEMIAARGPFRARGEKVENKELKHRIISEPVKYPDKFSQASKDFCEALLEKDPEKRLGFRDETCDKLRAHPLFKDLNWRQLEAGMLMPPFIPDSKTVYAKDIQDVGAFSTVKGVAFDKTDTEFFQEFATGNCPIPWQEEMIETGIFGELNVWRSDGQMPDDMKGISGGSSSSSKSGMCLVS
Sequence of SRPK3 (human) (Q9UPE1 whole entry, looked up): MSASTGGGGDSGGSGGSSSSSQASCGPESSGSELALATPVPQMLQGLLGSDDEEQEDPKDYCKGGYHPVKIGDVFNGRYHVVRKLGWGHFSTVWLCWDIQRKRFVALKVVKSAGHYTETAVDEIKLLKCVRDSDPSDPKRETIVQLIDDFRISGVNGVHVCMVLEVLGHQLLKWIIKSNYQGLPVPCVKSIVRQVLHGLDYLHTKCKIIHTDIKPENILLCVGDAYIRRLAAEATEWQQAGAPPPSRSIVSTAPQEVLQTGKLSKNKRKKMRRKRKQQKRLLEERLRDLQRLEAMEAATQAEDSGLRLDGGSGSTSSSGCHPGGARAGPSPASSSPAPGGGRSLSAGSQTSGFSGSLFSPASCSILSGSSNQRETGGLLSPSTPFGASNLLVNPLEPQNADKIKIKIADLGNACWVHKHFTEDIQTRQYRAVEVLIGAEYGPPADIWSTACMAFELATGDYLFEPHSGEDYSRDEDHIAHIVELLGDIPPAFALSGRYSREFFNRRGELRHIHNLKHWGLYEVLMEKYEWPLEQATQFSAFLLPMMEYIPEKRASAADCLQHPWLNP
Sequence of ACVR1B (human) (P36896 whole entry, looked up): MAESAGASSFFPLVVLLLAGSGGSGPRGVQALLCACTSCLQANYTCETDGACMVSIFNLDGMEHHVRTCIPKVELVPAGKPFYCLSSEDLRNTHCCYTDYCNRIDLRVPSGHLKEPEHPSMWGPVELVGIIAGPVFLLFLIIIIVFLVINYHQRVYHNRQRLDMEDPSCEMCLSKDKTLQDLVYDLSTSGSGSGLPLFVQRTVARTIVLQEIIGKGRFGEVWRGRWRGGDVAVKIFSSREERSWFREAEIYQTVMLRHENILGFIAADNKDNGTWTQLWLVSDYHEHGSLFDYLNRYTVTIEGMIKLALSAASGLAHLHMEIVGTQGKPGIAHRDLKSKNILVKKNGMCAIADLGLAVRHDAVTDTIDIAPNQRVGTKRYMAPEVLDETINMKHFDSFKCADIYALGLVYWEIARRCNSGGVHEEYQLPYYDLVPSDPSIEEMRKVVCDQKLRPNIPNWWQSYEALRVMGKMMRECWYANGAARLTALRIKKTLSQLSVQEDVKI
Sequence of PIK3CA (human), P42336 [E542K] (P42336 whole entry E542K, looked up): as the sequence (P42336 whole entry, looked up) above, with E542K counted along it

## N#Cc1cc(-c2ccnc(Nc3ccc(-n4cnc(-c5cccnc5)n4)cc3)n2)cc(N2CCOCC2)c1
MAP2K7 (human)
  kinase still bound, per cent of control: 100%
AKT3 (human)
  kinase still bound, per cent of control: 100%
DYRK1B (human)
  kinase still bound, per cent of control: 10%
SRPK3 (human)
  kinase still bound, per cent of control: 23%
PRKX (human)
  kinase still bound, per cent of control: 55%
SRPK1 (human)
  kinase still bound, per cent of control: 30%
MST1R (human)
  kinase still bound, per cent of control: 100%
PIK3C2G (human)
  kinase still bound, per cent of control: 100%
RPS6KA3 KD1 (human)
  kinase still bound, per cent of control: 69%
MUSK (human)
  kinase still bound, per cent of control: 92%
PDPK1 (human)
  kinase still bound, per cent of control: 100%
CDK15 (human)
  kinase still bound, per cent of control: 55%
MAP2K6 (human)
  kinase still bound, per cent of control: 41%
PKN1 (human)
  kinase still bound, per cent of control: 48%
CDK11B (human)
  kinase still bound, per cent of control: 32%
ULK3 (human)
  kinase still bound, per cent of control: 6%
GRK1 (human)
  kinase still bound, per cent of control: 100%
OXSR1 (human)
  kinase still bound, per cent of control: 96%
AKT1 (human)
  kinase still bound, per cent of control: 100%
CDK13 (human)
  kinase still bound, per cent of control: 100%
MAP2K3 (human)
  kinase still bound, per cent of control: 18%
SLK (human)
  kinase still bound, per cent of control: 10%
MAPK11 (human)
  kinase still bound, per cent of control: 79%
WEE2 (human)
  kinase still bound, per cent of control: 100%
EPHA1 (human)
  kinase still bound, per cent of control: 42%
ACVR1B (human)
  kinase still bound, per cent of control: 76%
RPS6KA5 KD2 (human)
  kinase still bound, per cent of control: 100%
MAP3K1 (human)
  kinase still bound, per cent of control: 100%
RIPK2 (human)
  kinase still bound, per cent of control: 53%
PIK3CA (human)
  kinase still bound, per cent of control: 100%
EPHB6 (human)
  kinase still bound, per cent of control: 14%
[1]
  kinase still bound, per cent of control: 100%
MAPK14 (human)
  kinase still bound, per cent of control: 100%
PHKG2 (human)
  kinase still bound, per cent of control: 81%
PRKCQ (human)
  kinase still bound, per cent of control: 100%
MAPK8 (human)
  kinase still bound, per cent of control: 0.05%
MAPK15 (human)
  kinase still bound, per cent of control: 2%
CDC42BPB (human)
  kinase still bound, per cent of control: 61%
STK25 (human)
  kinase still bound, per cent of control: 64%
RAF1 (human)
  kinase still bound, per cent of control: 91%
